Patent US8975298B2, “Therapeutic agent for pain” (ONO Pharmaceutical Co., Ltd., priority 2005, dated 2015)
Where “and” joins values, the source holds several entries; their conditions need not be identical. Identical values can stand only once.

Experiments:
[1] = test system: dogs; conditions: dog, in vivo, iv, 100 mg/kg
From the text: Since the toxicity of (2R)-2-propyloctanoic acid, a salt thereof or a prodrug thereof is extremely low, it can be considered to be sufficiently safe for medicinal uses.

[2] = test system: spinal nerve ligation model rats; test: Latent time of pain response to heat stimulus (heat hyperalgesia) in rat spinal nerve ligation model; format: in vivo
Method: (§1) Male rats were used in the experiment. Spinal nerve ligation models were made in accordance with the method of Kim & Chung (Kim, S. H. & Chung, J. M., An experimental model for peripheral neuropathy produced by segmental spinal nerve ligation in the rat, Pain, 50, 355-363, 1992). Namely, the fifth lumber nerve in one side was strongly ligated with silken threads.
(§2) More specifically, the models were made in the following manner.
(§3) After intraperitoneally administering 40 mg/kg (liquid volume 0.8 ml/kg) of pentobarbital (Nenbutal Injection (trade name), Dainippon Pharmaceutical Co., Ltd.), a rat was fixed in the dorsal position under anesthesia and the abdomen was incised in the median line with scissors. The intestines and the like were pushed aside with sterilized gauze and the abdominal aorta and the abdominal vein were confirmed. Then, the muscle located immediately below the iliolumbar vein was cleaved with tweezers. After confirming the fourth lumber nerve and the fifth lumber nerve in the muscle, the fifth lumber nerve (L5) was ligated with 6-0 silken threads. Subsequently, the intestines having been pushed away were returned to the original positions. 5 ml of physiological saline (otsuka Pharmaceutical Factory, Inc.) containing ampicillin sodium (Viccillin for Injection (trade name), Meiji Seika Kaisha, Ltd.) (ampicillin concentration: 20 mg/ml) was poured into the peritoneal cavity, and the abdominal muscles and skin were sutured with a nylon thread.
From immediately after the spinal nerve ligation, 30 mg/kg of (2R)-2-propyloctanoic acid was orally administered once a day for 14 days (14 times in total). Also, vehicle control was administered in the same manner. […]
On the next day of the final administration, the latent time of heat stimulus was measured. Namely, right and left footpads were irradiated with infrared light of a halogen lamp from the lower side, and the time until the occurrence of an escape response (the latent time of pain reaction: sec) was measured.

[3] = test system: spinal nerve ligation model rats; test: Escape threshold of contact stimulus, von Frey filaments (contact allodynia) in rat spinal nerve ligation model; format: in vivo
Method: as §1, §2, §3
From immediately after the spinal nerve ligation, 30 mg/kg of (2R)-2-propyloctanoic acid was orally administered once a day for 14 days (14 times in total). Also, vehicle control was administered in the same manner.
(3-2) Measurement of Escape Threshold of Contact Stimulus (Evaluation of Contact Allodynia)
On the next day of the final administration, the escape threshold of a contact stimulus was measured. Namely, filaments (von Frey filaments: VFF) were pressed against right and left footpads from the lower side. Then, the VFF indication at the occurrence of an escape response was recorded and converted into weight (g).

[4] = 30 mg/kg orally once a day for 14 days from immediately after L5 ligation, measured next day after final administration, injured (operated-on) side
[5] = 30 mg/kg orally once a day for 14 days from immediately after L5 ligation, measured next day after final administration, normal (opposite) side
[6] = 30 mg/kg orally, 14 days, injured side vs vehicle control, p<0.01 Welch test

CCCCCC[C@@H](CCC)C(=O)O [(2R)-2-propyloctanoic acid]
Fatal cases [1]: no fatal case was observed | Latent time of pain response (sec) Injured side [2, 4]: 13.61 s and 13.61 ± 6.76 s | Latent time of pain response (sec) Normal side [2, 5]: 19.00 s and 19.00 ± 5.58 s | Analgesic effect on heat hyperalgesia [2, 6]: an analgesic effect on heat hyperalgesia was confirmed | Escape threshold of contact stimulus (g) Injured side [3, 4]: 14.7 g and 14.7 ± 12.7 g | Escape threshold of contact stimulus (g) Normal side [3, 5]: 66.1 g and 66.1 ± 29.8 g | Analgesic effect on contact allodynia [3, 6]: an analgesic effect on contact allodynia was confirmed
